target: T1, recombinant human 5-HT5A receptor (Homo sapiens, UniProt P47898); assay: [3H]LSD radioligand binding assay; conditions: [3H]LSD (approximately 1 nM); membranes from transiently expressed 5-HT5A receptors in HEK-EBNA cells; Ki by Cheng-Prussoff equation
T1 construct: expressed in transfected cells; host or cells: HEK-EBNA (Human Embryonic Kidney-EBNA) cells, transient cDNA expression; membranes
Procedure: Compounds of the invention were tested for 5-HT5A activity in the following assay.
A [^3H]LSD radioligand binding assay was used to determine the affinity of the compounds for the recombinant human 5-HT5A receptor, in membranes from transiently (cDNA) expressed 5-HT5A receptors in Human Embryonic Kidney-EBNA (HEK-EBNA) cells. Assay buffer consisted of Tris (50 mM) buffer containing 1 mM EGTA, 10 mM MgCl2 (pH 7.4) and 10 μM pargyline. The binding assay was carried out in 96-well-plates in the presence of [^3H]LSD (approximately 1 nM), approximately 2 μg/well of membrane protein, and 0.5 mg of Ysi-poly-l-lysine SPA beads in a final volume of 200 μl of buffer. Non-specific binding was defined using methiothepin 2 μM. Compounds were tested at 10 concentrations. All assays were conducted in duplicate and repeated at least two times. Assay plates were incubated for 120 min at room temperature before centrifugation. Bound ligand was determined using a Packard Topcount scintillation counter. IC50 values were calculated using a non-linear curve fitting program and Ki values calated using the Cheng-Prussoff equation.

T1 sequence (P47898 whole entry): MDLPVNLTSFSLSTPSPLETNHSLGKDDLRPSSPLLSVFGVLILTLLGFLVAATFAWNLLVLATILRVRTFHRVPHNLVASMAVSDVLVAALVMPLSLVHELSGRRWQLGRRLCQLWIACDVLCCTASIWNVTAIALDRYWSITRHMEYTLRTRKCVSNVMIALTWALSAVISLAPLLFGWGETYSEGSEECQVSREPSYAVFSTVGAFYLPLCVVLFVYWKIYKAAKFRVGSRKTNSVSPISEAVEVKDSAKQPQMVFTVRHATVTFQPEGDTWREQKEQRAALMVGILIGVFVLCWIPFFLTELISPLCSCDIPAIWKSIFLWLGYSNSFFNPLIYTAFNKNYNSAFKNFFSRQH

Compound | Ki
Clc1cccc2c1CNC(NCCOc1ccccc1)=N2 [Example 9, (5-Chloro-3,4-dihydro-quinazolin-2-yl)-(2-phenoxy-ethyl)-amine hydroiodide] | 53 nM
Cc1cccc2c1CNC(NCCOc1ccccc1)=N2 [Example 10, (5-Methyl-3,4-dihydro-quinazolin-2-yl)-(2-phenoxy-ethyl)-amine hydroiodide] | 46 nM
c1ccc(COc2ccccc2OCCNC2=Nc3ccccc3CN2)cc1 [Example 39, [2-(2-Benzyloxy-phenoxy)-ethyl]-(3,4-dihydro-quinazolin-2-yl)-amine] | 86.7 nM
Clc1ccc2c(c1Cl)CNC(NCCOc1ccccc1)=N2 [Example 14, (5,6-Dichloro-3,4-dihydro-quinazolin-2-yl)-(2-phenoxy-ethyl)-amine hydroiodide] | 76 nM
COc1cccc(OCCNC2=Nc3ccccc3CN2)c1 [Example 16, (3,4-Dihydro-quinazolin-2-yl)-[2-(3-methoxy-phenoxy)-ethyl]-amine] | 96 nM
CC1NC(NCCOc2ccccc2)=Nc2ccccc21 (stereo not shown) [Example 11, (4-Methyl-3,4-dihydro-quinazolin-2-yl)-(2-phenoxy-ethyl)-amine hydroiodide] | 58 nM
Fc1ccccc1OCCNC1=Nc2ccccc2CN1 [Example 6, (3,4-Dihydro-quinazolin-2-yl)-[2-(2-fluoro-phenoxy)-ethyl]-amine] | 34 nM
Brc1ccccc1OCCNC1=Nc2ccccc2CN1 [Example 37, [2-(2-Bromo-phenoxy)-ethyl]-(3,4-dihydro-quinazolin-2-yl)-amine] | 22.2 nM
COc1ccc2c(c1)CNC(NCCOc1ccccc1Cl)=N2 [Example 56, [2-(2-Chloro-phenoxy)-ethyl]-(6-methoxy-3,4-dihydro-quinazolin-2-yl)-amine] | 83.1 nM
COc1ccc2c(c1)CNC(NCCOc1ccccc1)=N2 [Example 15, (6-Methoxy-3,4-dihydro-quinazolin-2-yl)-(2-phenoxy-ethyl)-amine] | 76 nM
COc1ccc(C)cc1OCCNC1=Nc2ccccc2CN1 [Example 44, (3,4-Dihydro-quinazolin-2-yl)-[2-(2-methoxy-5-methyl-phenoxy)-ethyl]-amine] | 82.5 nM
Cc1ccc2c(c1)CNC(NCCOc1ccccc1Cl)=N2 [Example 58, [2-(2-Chloro-phenoxy)-ethyl]-(6-methyl-3,4-dihydro-quinazolin-2-yl)-amine] | 53.8 nM
Fc1cccc2c1CNC(NCCOc1ccccc1Cl)=N2 [Example 59, [2-(2-Chloro-phenoxy)-ethyl]-(5-fluoro-3,4-dihydro-quinazolin-2-yl)-amine] | 48.4 nM
COc1cccc(F)c1OCCNC1=Nc2ccccc2CN1 [Example 45, (3,4-Dihydro-quinazolin-2-yl)-[2-(2-fluoro-6-methoxy-phenoxy)-ethyl]-amine] | 42.9 nM
COc1ccc2c(c1)CNC(NCCOc1ccccc1OC)=N2 [Example 62, (6-Methoxy-3,4-dihydro-quinazolin-2-yl)-[2-(2-methoxy-phenoxy)-ethyl]-amine] | 53.6 nM
N#Cc1ccccc1OCCNC1=Nc2ccccc2CN1 [Example 38, 2-[2-(3,4-Dihydro-quinazolin-2-ylamino)-ethoxy]-benzonitrile] | 54 nM
CCOc1ccccc1OCCNC1=Nc2ccccc2CN1 [Example 8, (3,4-Dihydro-quinazolin-2-yl)-[2-(2-ethoxy-phenoxy)-ethyl]-amine] | 38 nM

Compound | Ki
Cc1ccc2c(c1)CNC(NCCOc1ccccc1)=N2 [Example 4, (6-Methyl-3,4-dihydro-quinazolin-2-yl)-(2-phenoxy-ethyl)-amine] | 25 nM
COc1ccccc1OCCNC1=Nc2ccc(C)cc2CN1 [Example 64, [2-(2-Methoxy-phenoxy)-ethyl]-(6-methyl-3,4-dihydro-quinazolin-2-yl)-amine] | 19.7 nM
COc1cccc(OC)c1OCCNC1=Nc2ccccc2CN1 [Example 41, (3,4-Dihydro-quinazolin-2-yl)-[2-(2,6-dimethoxy-phenoxy)-ethyl]-amine] | 90.3 nM
COc1ccccc1OCCNC1=Nc2cccc(F)c2CN1 [Example 67, (5-Fluoro-3,4-dihydro-quinazolin-2-yl)-[2-(2-methoxy-phenoxy)-ethyl]-amine] | 23.6 nM
Clc1cccc(OCCNC2=Nc3ccccc3CN2)c1 [Example 18, [2-(3-Chloro-phenoxy)-ethyl]-(3,4-dihydro-quinazolin-2-yl)-amine] | 100 nM
COc1ccccc1OCCNC1=Nc2ccc(F)cc2CN1 [Example 29, (6-Fluoro-3,4-dihydro-quinazolin-2-yl)-[2-(2-methoxy-phenoxy)-ethyl]-amine] | 19.9 nM
Fc1cccc2c1CNC(NCCOc1ccccc1)=N2 [Example 7, (5-Fluoro-3,4-dihydro-quinazolin-2-yl)-(2-phenoxy-ethyl)-amine hydroiodide] | 30 nM
Fc1ccc(Br)c(OCCNC2=Nc3ccccc3CN2)c1 [Example 46, [2-(2-Bromo-5-fluoro-phenoxy)-ethyl]-(3,4-dihydro-quinazolin-2-yl)-amine] | 89 nM
Fc1cccc(OCCNC2=Nc3ccccc3CN2)c1 [Example 17, (3,4-Dihydro-quinazolin-2-yl)-[2-(3-fluoro-phenoxy)-ethyl]-amine] | 96 nM
Cc1cccc(OCCNC2=Nc3ccccc3CN2)c1 [Example 12, (3,4-Dihydro-quinazolin-2-yl)-(2-m-tolyloxy-ethyl)-amine] | 64 nM
C/C=C/c1ccccc1OCCNC1=Nc2ccccc2CN1 [Example 34, (3,4-Dihydro-quinazolin-2-yl)-[2-(2-propenyl-phenoxy)-ethyl]-amine] | 58.7 nM
Clc1ccccc1OCCNC1=Nc2ccccc2CN1 [Example 3, [2-(2-Chloro-phenoxy)-ethyl]-(3,4-dihydro-quinazolin-2-yl)-amine] | 19 nM
CSc1ccccc1OCCNC1=Nc2ccccc2CN1 [Example 35, (3,4-Dihydro-quinazolin-2-yl)-[2-(2-methylsulfanyl-phenoxy)-ethyl]-amine] | 35.7 nM
c1ccc(OCCNC2=Nc3ccccc3CN2)cc1 [Example 5, (3,4-Dihydro-quinazolin-2-yl)-(2-phenoxy-ethyl)-amine hydroiodide] | 42 nM
Fc1ccc2c(c1)CNC(NCCOc1ccccc1)=N2 [Example 2, (6-Fluoro-3,4-dihydro-quinazolin-2-yl)-(2-phenoxy-ethyl)-amine] | 18 nM
COc1ccccc1OCCNC1=Nc2ccccc2CN1 [Example 1, (3,4-Dihydro-quinazolin-2-yl)-[2-(2-methoxy-phenoxy)-ethyl]-amine] | 7.5 nM
FC(F)(F)Oc1ccccc1OCCNC1=Nc2ccccc2CN1 [Example 13, (3,4-Dihydro-quinazolin-2-yl)-[2-(2-trifluoromethoxy-phenoxy)-ethyl]-amine] | 72 nM

Reference: patent US7781441B2, “(3,4-dihydro-quinazolin-2-yl)-(2-aryloxy-ethyl)-amine” (Hoffmann-La Roche Inc., priority 2005, dated 2010)
